# Test results: patent US12269816B2, “Benzothiophene compound, preparation method therefor and use thereof” (SICHUAN KELUN-BIOTECH BIOPHARMACEUTICAL CO., LTD., priority 2019, dated 2025)
# Columns and labels:
# [1] = test system: STING-mediated interferon (IFN) signal reporter gene in THP1-Blue™ ISG cells; assay: STING-mediated interferon (IFN) signal SEAP reporter gene assay in THP1-Blue ISG cells; format: cell-based, human
# Description: In this experiment, the activity of the SEAP (secreted embryonic alkaline phosphatase) reporter gene regulated by the IFN regulatory factor (interferon regulatory factor) was detected in the THP1-Blue™ ISG cells (InvivoGen) to evaluate the agonistic effect of the compounds to be tested on the STING-mediated IFN signal pathway at the cellular level.
# The THP1-Blue™ ISG cells (InvivoGen) in the logarithmic phase were centrifuged, and resuspended in a cell culture solution to a density of 2×10^6 cells/ml. The cell suspension was inoculated in a 96-well cell culture plate (Corning) at 50 μL/well. The mother liquor of the compound to be tested was gradiently diluted with a cell culture solution to obtain a 2× working concentration diluted solution (control compounds 1 and 2 were diluted at a 3-fold gradient: 200, 66.67, 22.22, 7.41, 2.47, 0.82, 0.27 and 0 μM; compounds 1, 2, 4, 6, 8, and 23 were diluted at a 8-fold gradient: 60, 7.5, 0.94, 0.12, 0.015, 0.0018, 0.00023 and 0 μM; and compounds 3 and 5 were diluted at a 10-fold gradient: 10, 1, 0.1, 0.01, 0.001, 0.0001, 0.00001 and 0 μM). The 2× working concentration diluted solution of the compound was added into a 96-well plate (50 μl of the culture solution containing 2% DMSO was added into the negative control well) at 50 μL/well. The culture plate was then placed in a cell incubator, and incubated for 16 h. After the cell incubation, 10 μL of the cell culture supernatant was transferred to a 96-well plate, and a QUANTI-Blue (InvivoGen) solution was added at 90 μL/well. The cells were incubated at 37° C. for 3 h. The absorbance at 620 nm (OD620nm) was read with a microplate reader.
# In the table, EC50 refers to the concentration of a compound when ODM620nm value generated by stimulation of the compound reaches half of Emax; and Emax refers to the highest OD620nm value generated by stimulation of the compound.
# [2] = test system: STING and its downstream proteins TBK1 and IRF3 in THP-1 cells; assay: Western blotting of phosphorylation of STING signal pathway proteins in human THP-1 cells; format: cell-based; settings: 3 hours, protein blotting, FIGS. 1-5, result in words
# Description: (§1) In this experiment, the changes in the phosphorylation levels of STING and its downstream proteins TBK1 (TANK-binding kinase 1) and IRF3 (interferon regulatory factor 3) were detected by protein blotting to evaluate the agonistic effect of the test compounds on the STING signal pathway at the cellular level.
# The THP-1 cells in the logarithmic phase were centrifuged, and resuspended in a cell culture solution to a density of […]. The cell suspension was inoculated into a 12-well cell culture plate (Corning) at 0.5 mL/well. The compound to be tested was diluted with a cell culture solution to 2× working solution concentration (control compounds 1 and 2: 60 μM; compounds 1 and 3: 0.6 μM, 6 μM, and 60 μM; compounds 2, 4, 6 and 8: 6 μM, 20 μM, and 60 μM). 0.5 mL of the diluted solution of the compound was added into a 12-well plate (500 μl of the culture solution containing 2% DMSO was added into the negative control well), and the plate was incubated in a cell incubator for 3 hours. After the incubation, the cells were collected by centrifugation, lysed with 60 μL cell lysis buffer (CST) for 30 minutes, and centrifuged at 12,000 rpm for 15 minutes. The supernatant was collected to determine the protein concentration, and then an appropriate amount of 5× protein loading buffer was added. The mixture was heated at 95° C. for 10 minutes to prepare a protein electrophoresis sample. Finally protein blotting was performed to detect the phosphorylation level of the corresponding protein. The primary antibodies used in the protein blotting were purchased from CST: STING (D2P2F) rabbit mAb, Phospho-STING (Ser366) rabbit mAb, Phospho-IRF3 (Ser396) (D601M) rabbit mAb, IRF3 (D83B9) rabbit mAb, TBK1/NAK (D1B4) rabbit mAb, Phospho-TBK1/NAK (Ser172) (D52C2) XP® rabbit mAb, and GAPDH (D16H11) rabbit mAb; and the secondary antibody horseradish peroxidase-conjugated goat anti-rabbit IgG (H+L) was purchased from Zsgb-bio.
# [3] = test system: STING and its downstream proteins TBK1 and IRF3 in Raw264.7 cells; assay: Western blotting of phosphorylation of STING signal pathway proteins in mouse Raw264.7 cells; format: cell-based; settings: 3 hours, protein blotting, FIGS. 6-7, result in words
# Description: as §1
# The Raw264.7 cells in the logarithmic phase were centrifuged, and resuspended in a cell culture solution to a density of 1.6×10^6 cells/mL. The cell suspension was inoculated into a 6-well cell culture plate (Corning) at 1 mL/well. The compound to be tested was diluted with a cell culture solution to 2× working solution concentration (control compounds 1 and 2: 60 μM; compound 8: 0.6 μM, 6 μM, and 60 μM; compounds 2, 4 and 6: 6 μM, 20 μM, and 60 μM). 1 mL of the diluted solution of the compound was added into a 6-well plate (1 mL of the culture solution containing 2% DMSO was added into the negative control well). The plate was placed in a cell incubator, and incubated for 3 hours. After the incubation, the cells were collected by centrifugation, lysed with 60 μL cell lysis buffer (CST) for 30 minutes, and centrifuged at 12000 rpm for 15 minutes. The supernatant was collected to determine the protein concentration, and then an appropriate amount of 5× protein loading buffer was added. The mixture was heated at 95° C. for 10 minutes to prepare a protein electrophoresis sample. Finally, protein blotting was performed to detect the phosphorylation level of the corresponding protein. The primary antibodies used in the protein blotting were purchased from CST: STING (D2P2F) rabbit mAb, Phospho-STING (Ser365) rabbit mAb, Phospho-IRF3 (Ser396) (D601M) rabbit mAb, IRF3 (D83B9) rabbit mAb, TBK1/NAK (D1B4) rabbit mAb, Phospho-TBK1/NAK (Ser172) (D52C2) XPV rabbit mAb, GAPDH (D16H11) rabbit mAb; and the secondary antibody horseradish peroxidase-conjugated goat anti-rabbit IgG (H+L) was purchased from Zsgb-bio.
smiles,measurement,setting,value
"COc1cc2cc(C(=O)CCC(=O)O)sc2cc1OCCCOc1cc2sc(C(=O)N(C)CCC(=O)O)cc2cc1OC [Compound 2, 4-(6-(3-((2-((2-carboxyethyl)(methyl)carbamoyl)-5-methoxybenzo[b]thiophen-6-yl)oxy)propoxy)-5-methoxybenzo[b]thiophen-2-yl)-4-oxobutanoic acid]",EC50,"[1]; Homo sapiens, 16 h incubation, SEAP reporter read at OD620nm",457 nM
same,Emax (OD620nm),"[1]; highest OD620nm value generated by stimulation of the compound, 16 h",1.82 OD620nm
same,agonistic effect on the STING-mediated Interferon (IFN) signal pathway,[1]; result in words,strong agonistic effects
same,"agonistic effect on the phosphorylation levels of STING, TBK1 and IRF3",[2],strong agonistic effects
same,"agonistic effect on the phosphorylation levels of STING, TBK1 and IRF3",[3],strong agonistic effects
